Here are results for 17 molecules from US11542257B2, “Arylnaphthalene compounds as vacuolar-ATPase inhibitors and the use thereof” (priority 2018, dated 2023).

Each structure is given as a SMILES string. Where two headings read alike, the source gives them in different places.

The subject of one series is Ebolavirus (EBOV). The series can be described thus: organism not typed. Type of series: cell-based. As to conditions: for IC50: read-out: EBOV IC50.
The test system of series [1] is endosomal acidification in HEK293 cells. The series can be described thus: cells. As to conditions: for IC50: read-out: HEK AO IC50. Type of series: cell-based.
In series [2] the test system is endosomal acidification in A549 cells. Put plainly: Inhibition of cellular endosomal acidification, acridine orange (AO), A549 cells. Type of series: cell-based.
For another series, the system named is A549 cells. Put plainly: Cytotoxicity (MTT), A549 cells. As to conditions: read-out: A549 CC50, 72 h, MTT.
Series [3] relates to cytosolic pH of HEK293 cells. Put plainly: Cytosolic pH, BCECF-AM, HEK293 cells. Type of series: cell-based. As to conditions: FIG. 1B.
Series [4] concerns the target T1, V-ATPase (Homo sapiens, UniProt P27449+Q93050). Type of series: biochemical.
Series [5] in a line: Cytotoxicity (MTT), A549 cells. The conditions noted are these: human.
A further series can be described thus: in vitro. As to conditions: human.
The target in series [6] is T1, V-ATPase. The series can be described thus: Acridine orange quenching in isolated HEK293 vesicles (proton-pumping function of V-ATPase). Type of series: biochemical.
The test system of a further series is Marburg virus (MARV). Type of series: cell-based.
In series [7] the test system is filoviral infection of primary human macrophages (PHM). Type of series: cell-based, filovirus. As to conditions: read-out: PHM Antiviral IC50.
Series [8] has as its system endosomal pH of HEK293 cells. The series can be described thus: Intracellular endosomal pH, FITC-dextran, HEK293 cells. Type of series: cell-based. The conditions noted are these: HEK293, 4 h, 1-3 μM, FIG. 1C.

T1 sequence (P27449 whole entry, looked up): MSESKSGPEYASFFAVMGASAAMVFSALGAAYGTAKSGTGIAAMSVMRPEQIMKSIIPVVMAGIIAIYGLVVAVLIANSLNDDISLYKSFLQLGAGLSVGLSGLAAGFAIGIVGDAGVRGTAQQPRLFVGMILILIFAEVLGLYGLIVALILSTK
T1 sequence (Q93050 whole entry, looked up): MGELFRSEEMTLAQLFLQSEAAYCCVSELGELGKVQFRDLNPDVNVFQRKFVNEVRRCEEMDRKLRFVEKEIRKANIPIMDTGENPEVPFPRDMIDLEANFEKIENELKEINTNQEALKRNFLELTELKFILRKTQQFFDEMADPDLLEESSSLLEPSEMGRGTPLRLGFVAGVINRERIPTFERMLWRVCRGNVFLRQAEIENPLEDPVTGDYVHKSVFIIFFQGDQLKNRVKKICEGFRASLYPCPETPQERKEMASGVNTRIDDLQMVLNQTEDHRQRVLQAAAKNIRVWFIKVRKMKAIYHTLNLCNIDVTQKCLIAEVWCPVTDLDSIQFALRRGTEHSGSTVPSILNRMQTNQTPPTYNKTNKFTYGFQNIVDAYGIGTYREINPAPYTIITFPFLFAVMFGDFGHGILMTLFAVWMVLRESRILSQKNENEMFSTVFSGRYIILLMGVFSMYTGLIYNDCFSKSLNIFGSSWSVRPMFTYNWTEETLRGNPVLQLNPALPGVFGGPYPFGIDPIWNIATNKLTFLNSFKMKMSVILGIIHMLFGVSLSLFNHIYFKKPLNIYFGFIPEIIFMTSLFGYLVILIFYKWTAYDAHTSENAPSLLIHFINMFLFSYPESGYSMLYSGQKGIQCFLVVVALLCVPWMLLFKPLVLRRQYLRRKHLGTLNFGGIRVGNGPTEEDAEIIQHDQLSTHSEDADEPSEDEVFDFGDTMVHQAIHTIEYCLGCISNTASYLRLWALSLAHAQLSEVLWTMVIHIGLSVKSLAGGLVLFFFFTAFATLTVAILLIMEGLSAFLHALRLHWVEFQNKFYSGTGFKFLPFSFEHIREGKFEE

In the case of `COc1cc2c(O)c3c(c(-c4ccc5c(c4)OCO5)c2cc1OC)C(=O)N(/N=C/c1ccc(C#N)cc1)C3` [Compound 3g, (E)-4-(((9-(benzo[d][1,3]dioxol-5-yl)-4-hydroxy-6,7-dimethoxy-1-oxo-1,3-dihydro-2H-benzo[f]isoindol-2-yl)imino)methyl)benzonitrile], the IC50 in the series on Ebolavirus (EBOV) (HeLa) is 1.69 ± 0.233 µM; in series [1] (Homo sapiens, HEK293, 4 h), above 10 µM.
`COc1cc2c(OC(C)=O)c3c(c(-c4ccc5c(c4)OCO5)c2cc1OC)C(=O)N(CCO)C3=O` [Compound 1e, 9-(benzo[d][1,3]dioxol-5-yl)-2-(2-hydroxyethyl)-6,7-dimethoxy-1,3-dioxo-2,3-dihydro-1H-benzo[f]isoindol-4-yl acetate]: in the series on Ebolavirus (EBOV), the “active in screen for inhibition of ebolavirus infection” value is “active”. For the same molecule, the IC50 in the series with Ebolavirus (EBOV) (HeLa) is 5.4 ± 2.92 µM; in [1] (Homo sapiens, HEK293, 4 h) it was above 10 µM. Besides, the “effect on endosomal acidification (AO fluorescence ratio), in words” value in series [1] is listed as “did not cause a significant change in the fluorescence ratio”.
As for `CO/C1=C\C(C)=C\[C@@H](C)[C@@H](O)[C@@H](C)C/C(C)=C/C=C/[C@H](OC)[C@@H]([C@@H](C)[C@@H](O)[C@H](C)[C@@]2(O)C[C@@H](O)[C@H](C)[C@@H](C(C)C)O2)OC1=O` [Baf A1, bafilomycin A1, reference compound], the values for the IC50 (with Ebolavirus (EBOV); in series [2]; in [1]) were 0.0149 ± 0.00893 µM, 0.0213 ± 0.00255 µM and 0.0405 ± 0.00331 µM, respectively. Further, the CC50 is 0.479 ± 0.266 µM with A549 cells and 0.32 ± 0.042 µM in the series on HEK293 cells. In addition, the “change in cytosolic pH compared to the vehicle treated control” value in series [3] was “no significant change”.
Regarding `COc1cc2c(OC)c3c(c(-c4ccc5c(c4)OCO5)c2cc1OC)C(=O)OC3` [Compound 2b, 9-(benzo[d][1,3]dioxol-5-yl)-4,6,7-trimethoxynaphtho[2,3-c]furan-1(3H)-one], the “inhibition of ATP hydrolysis, in words” value at V-ATPase [4] is listed as “inhibited ATP hydrolysis to a similar extent”. Besides, the IC50 in the series on Ebolavirus (EBOV) came to 0.171 ± 0.0402 µM; in series [2], 0.0582 ± 0.00876 µM; in series [1], 0.265 ± 0.0586 µM. The CC50 at 72 h in series [5] was above 100 µM. The molecule further returned a CC50 in “in vitro” of 5.73 ± 0.841 µM.
Turning to `COc1cc2c(O)c3c(c(-c4ccc5c(c4)OCO5)c2cc1OC)C(=O)N(/N=C/c1ccc(Cl)cc1)C3` [Compound 3d, (E)-9-(benzo[d][1,3]dioxol-5-yl)-2-((4-chlorobenzylidene)amino)-4-hydroxy-6,7-dimethoxy-2,3-dihydro-1H-benzo[f]isoindol-1-one], the half-inhibitory concentration (IC50) is 1.17 ± 0.518 µM in the series with Ebolavirus (EBOV), 8.44 ± 0.367 µM in series [2] and 9.93 ± 0.14 µM in series [1]. In series [5], the CC50 at 72 h worked out at 78 ± 26.4 µM. Also, at V-ATPase [6], the “times less effective than diphyllin (AO quenching)” value is reported as 4 times. In addition, the CC50 in “in vitro” came out at 28.4 ± 2.71 µM.
For `CCOc1c2c(c(-c3ccc4c(c3)OCO4)c3cc(OC)c(OC)cc13)C(=O)OC2` [Compound 2c, 9-(benzo[d][1,3]dioxol-5-yl)-4-ethoxy-6,7-dimethoxynaphtho[2,3-c]furan-1(3H)-one], the “inhibition of ATP hydrolysis, in words” value against V-ATPase [4] is “inhibited ATP hydrolysis to a similar extent”. The half-inhibitory concentration (IC50) in the series on Ebolavirus (EBOV) amounted to 0.112 ± 0.0147 µM; in [2], 0.0524 ± 0.0193 µM; in series [1] it was 0.254 ± 0.049 µM. In series [5], this molecule returned a CC50 at 72 h of 77.4 ± 11 µM. Besides, the CC50 in “in vitro” worked out at 2.38 µM.
Regarding `COc1cc2c(O)c3c(c(-c4ccc5c(c4)OCO5)c2cc1OC)C(=O)N(/N=C/c1ccccc1)C3` [Compound 3b, (E)-9-(benzo[d][1,3]dioxol-5-yl)-2-(benzylideneamino)-4-hydroxy-6,7-dimethoxy-2,3-dihydro-1H-benzo[f]isoindol-1-one], the IC50 in the series on Ebolavirus (EBOV) (HeLa) is 6.63 ± 0.437 µM; in [1] (Homo sapiens, HEK293, 4 h), above 10 µM.
Turning to `CCOC(=O)CN1CCN(CCCOc2c3c(c(-c4ccc5c(c4)OCO5)c4cc(OC)c(OC)cc24)C(=O)OC3)CC1` [Compound 2h, ethyl 2-(4-(3-((9-(benzo[d][1,3]dioxol-5-yl)-6,7-dimethoxy-1-oxo-1,3-dihydronaphtho[2,3-c]furan-4-yl)oxy)propyl)piperazin-1-yl)acetate], the “inhibition of ATP hydrolysis, in words” value against V-ATPase [4] is recorded as “inhibited ATP hydrolysis to a similar extent”. In addition, the concentration for half-maximal inhibition (IC50) in the series with Ebolavirus (EBOV) worked out at 0.132 ± 0.0323 µM; in [2], 0.101 ± 0.0138 µM; in the series with Marburg virus (MARV) it was 0.0816 ± 0.0287 µM; in series [1], 0.172 ± 0.0406 µM; in [7], 0.256 µM. This molecule displayed a CC50 at 72 h in [5] above 100 µM.
For `C#CCOc1c2c(c(-c3ccc4c(c3)OCO4)c3cc(OC)c(OC)cc13)C(=O)OC2` [Compound 2d, 9-(benzo[d][1,3]dioxol-5-yl)-6,7-dimethoxy-4-(prop-2-yn-1-yloxy)naphtho[2,3-c]furan-1(3H)-one], the IC50 with Ebolavirus (EBOV) (HeLa) worked out at 0.175 ± 0.0217 µM; in series [1] (Homo sapiens, HEK293, 4 h), 0.263 ± 0.0466 µM. In “in vitro”, this molecule showed a CC50 of 2.04 µM.
With `C#CCCCOc1c2c(c(-c3ccc4c(c3)OCO4)c3cc(OC)c(OC)cc13)C(=O)OC2` [Compound 2e, 9-(benzo[d][1,3]dioxol-5-yl)-6,7-dimethoxy-4-(pent-4-yn-1-yloxy)naphtho[2,3-c]furan-1(3H)-one], the “inhibition of ATP hydrolysis, in words” value against V-ATPase [4] is listed as “inhibited ATP hydrolysis to a similar extent”. The IC50 in the series with Ebolavirus (EBOV) stood at 0.0732 ± 0.0119 µM; in [2] it was 0.0848 ± 0.0119 µM; in the series with Marburg virus (MARV), 0.402 ± 0.0459 µM; in [1], 0.102 ± 0.019 µM; in series [7] it was 0.24 µM. Further, the CC50 at 72 h in [5] was above 100 µM. The “times better activity than Bafilomycin A1 (proton pumping activity of V-ATPase)” value at V-ATPase [6] was determined as 2 times. Further, the “times better activity than diphyllin (proton pumping activity of V-ATPase)” value on V-ATPase [6] is 17 times.
On to `COc1cc2c(O)c3c(c(-c4ccc5c(c4)OCO5)c2cc1OC)C(=O)N(/N=C/c1c(F)c(F)c(F)c(F)c1F)C3` [Compound 3h, (E)-9-(benzo[d][1,3]dioxol-5-yl)-4-hydroxy-6,7-dimethoxy-2-(((perfluorophenyl)methylene)amino)-2,3-dihydro-1H-benzo[f]isoindol-1-one], for which the half-inhibitory concentration (IC50) in the series on Ebolavirus (EBOV) (HeLa) is 8.74 ± 2.18 µM; in series [1] (Homo sapiens, HEK293, 4 h), above 10 µM.
As to `COc1cc2c(O)c3c(c(-c4ccc5c(c4)OCO5)c2cc1OC)C(=O)OC3` [Compound 2a, 9-(benzo[d][1,3]dioxol-5-yl)-4-hydroxy-6,7-dimethoxynaphtho[2,3-c]furan-1(3H)-one, reference compound], the “inhibition of ATP hydrolysis, in words” value at V-ATPase [4] was “inhibited ATP hydrolysis to a similar extent”. Besides, the IC50 with Ebolavirus (EBOV) was 0.678 ± 0.161 µM; in series [2] it was 0.149 ± 0.0205 µM; in the series with Marburg virus (MARV), 1.77 ± 0.08 µM; in [1], 0.476 ± 0.0601 µM. In addition, the “endosomal pH after treatment” value in [8] was around 7 pH. This molecule also came in with a CC50 at 72 h in [5] of 50.1 ± 15.5 µM. Also, the “times less potent than bafilomycin A1 (V-ATPase-mediated fluorescent quenching)” value at V-ATPase [6] is on record as “about 7.5 times”. In series [3], the “change in cytosolic pH compared to the vehicle treated control” value was “no significant change”.
Consider `COc1cc2c(OCCCN3CCOCC3)c3c(c(-c4ccc5c(c4)OCO5)c2cc1OC)C(=O)OC3` [Compound 2g, 9-(benzo[d][1,3]dioxol-5-yl)-6,7-dimethoxy-4-(3-morpholinopropoxy)naphtho[2,3-c]furan-1(3H)-one], for which the “inhibition of ATP hydrolysis, in words” value on V-ATPase [4] is reported as “inhibited ATP hydrolysis to a similar extent”. The IC50 worked out at 0.107 ± 0.0237 µM with Ebolavirus (EBOV); 0.0561 ± 0.0159 µM in series [2]; 0.135 ± 0.0114 µM in the series on Marburg virus (MARV); 0.0743 ± 0.0239 µM in series [1]; 0.0577 ± 0.0086 µM in series [7]. This molecule gave a CC50 at 72 h in series [5] above 100 µM. For the same molecule, the “times better activity than diphyllin (proton pumping activity of V-ATPase)” value at V-ATPase [6] is 7 times.
On to `COc1cc2c(O)c3c(c(-c4ccc5c(c4)OCO5)c2cc1OC)C(=O)N(N)C3` [Compound 3a, 2-amino-9-(benzo[d][1,3]dioxol-5-yl)-4-hydroxy-6,7-dimethoxy-2,3-dihydro-1H-benzo[f]isoindol-1-one], for which the half-maximal inhibitory concentration (IC50) in the series on Ebolavirus (EBOV) (HeLa) came to 3.94 ± 0.604 µM; in [2] (Homo sapiens), 8.11 ± 0.67 µM; in series [1] (Homo sapiens, HEK293, 4 h), 9.06 ± 0.893 µM. The same molecule gave a CC50 at 72 h in [5] of 28.7 ± 16.6 µM. In “in vitro”, the CC50 was 48.9 ± 3.61 µM. Further, in [1], the “effect on endosomal acidification (AO fluorescence ratio), in words” value is recorded as “moderately inhibited acidification”.
On to `COc1cc2c(OCCCN3CCN(CCO)CC3)c3c(c(-c4ccc5c(c4)OCO5)c2cc1OC)C(=O)OC3` [Compound 2i, 9-(benzo[d][1,3]dioxol-5-yl)-4-(3-(4-(2-hydroxyethyl)piperazin-1-yl)propoxy)-6,7-dimethoxynaphtho[2,3-c]furan-1(3H)-one], for which the IC50 in the series on Ebolavirus (EBOV) is 0.0762 ± 0.0146 µM; in [1] it was 0.104 ± 0.0212 µM.
Turning to `COc1cc2c(O)c3c(c(-c4ccc5c(c4)OCO5)c2cc1OC)C(=O)N(/N=C/c1cccnc1)C3` [Compound 3c, (E)-9-(benzo[d][1,3]dioxol-5-yl)-4-hydroxy-6,7-dimethoxy-2-((pyridin-3-ylmethylene)amino)-2,3-dihydro-1H-benzo[f]isoindol-1-one], the IC50 was 4.48 ± 0.467 µM with Ebolavirus (EBOV), 11.6 µM in series [2] and 8.71 ± 0.769 µM in series [1]. Besides, the CC50 at 72 h in series [5] came out at 50.1 ± 27.7 µM. The “times less effective than diphyllin (AO quenching)” value on V-ATPase [6] turned out to be 2 times. In the series “in vitro”, this molecule returned a CC50 of 49.9 ± 15.9 µM.
On to `COc1cc2c(OCCCC#N)c3c(c(-c4ccc5c(c4)OCO5)c2cc1OC)C(=O)OC3` [Compound 2f, 4-((9-(benzo[d][1,3]dioxol-5-yl)-6,7-dimethoxy-1-oxo-1,3-dihydronaphtho[2,3-c]furan-4-yl)oxy)butanenitrile], for which the IC50 in the series on Ebolavirus (EBOV) (HeLa) stood at 0.0931 ± 0.0268 µM; in series [1] (Homo sapiens, HEK293, 4 h) it was 0.0987 ± 0.0295 µM. Moreover, in the series “in vitro”, the CC50 turned out to be 3.31 ± 0.74 µM.
